Experimental data reported in ChEMBL document CHEMBL1909046, “DrugMatrix in vitro pharmacology data”.

How the values were obtained:
Adenosine receptor A2a = Adenosine receptor A2a (Homo sapiens, UniProt P29274); test: DRUGMATRIX: Adenosine A2A radioligand binding (ligand: […]); assay type: cell membranes, HEK293, Membrane; conditions: Not Active = under 50% inhibition at 10 µM
[1] = biological target: Sigma non-opioid intracellular receptor 1 (Homo sapiens, UniProt Q99720); test: DRUGMATRIX: Sigma1 radioligand binding (ligand: [3H] Haloperidol); assay type: cell membranes, Jurkat, Membrane; conditions: Not Active = under 50% inhibition at 10 µM
[2] = biological target: T1, C-X-C chemokine receptor type 2 (Homo sapiens, UniProt P25025); assay type: cell membranes, Membrane; conditions: cho-k1; further: in other assays of this panel Not Active means under 50% inhibition at 10 µM
T1 sequence (P25025 whole entry): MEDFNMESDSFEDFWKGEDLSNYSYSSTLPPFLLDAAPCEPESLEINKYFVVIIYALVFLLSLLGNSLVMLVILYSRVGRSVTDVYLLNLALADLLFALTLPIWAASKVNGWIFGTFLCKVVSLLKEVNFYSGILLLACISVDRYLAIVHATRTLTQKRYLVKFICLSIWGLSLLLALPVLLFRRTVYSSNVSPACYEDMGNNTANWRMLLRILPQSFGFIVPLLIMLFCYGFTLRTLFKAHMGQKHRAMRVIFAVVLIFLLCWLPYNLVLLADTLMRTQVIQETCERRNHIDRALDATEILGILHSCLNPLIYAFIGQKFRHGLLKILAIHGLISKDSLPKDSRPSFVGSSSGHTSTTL

[3] = biological target: cGMP-specific 3',5'-cyclic phosphodiesterase (Homo sapiens, UniProt O76074); test: DRUGMATRIX: Phosphodiesterase PDE5 enzyme inhibition (substrate: [3H]cGMP + cGMP); assay type: tissue-based; conditions: platelet; Not Active = under 50% inhibition at 10 µM
[4] = biological target: T2, Cysteinyl leukotriene receptor 1 (Homo sapiens, UniProt Q9Y271); assay type: cell membranes, CHO-K1, Membrane; conditions: cho-k1; further: in other assays of this panel Not Active means under 50% inhibition at 10 µM
T2 sequence (Q9Y271 whole entry): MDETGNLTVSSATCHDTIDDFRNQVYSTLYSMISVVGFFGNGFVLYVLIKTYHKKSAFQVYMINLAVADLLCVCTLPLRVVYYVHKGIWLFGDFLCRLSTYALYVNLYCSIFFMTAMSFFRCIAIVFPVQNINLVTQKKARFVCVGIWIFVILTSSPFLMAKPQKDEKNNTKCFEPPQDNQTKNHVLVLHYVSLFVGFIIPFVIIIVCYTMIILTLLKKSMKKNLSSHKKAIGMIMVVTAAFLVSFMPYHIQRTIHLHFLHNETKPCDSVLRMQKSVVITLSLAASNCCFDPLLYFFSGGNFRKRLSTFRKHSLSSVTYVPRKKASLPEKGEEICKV

Carbonic anhydrase 2 = Carbonic anhydrase 2 (Homo sapiens, UniProt P00918); test: DRUGMATRIX: Carbonic Anhydrase II enzyme inhibition (substrate: 4-Nitrophenyl acetate (4-NPA)); assay type: tissue-based, Erythrocyte; conditions: erythrocyte; Not Active = under 50% inhibition at 10 µM
[5] = biological target: Receptor tyrosine-protein kinase erbB-2 (Homo sapiens, UniProt P04626); test: biochemical; assay type: cell-based, Insect cells; conditions: insect cells;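 further: inhibition of HER2 kinase enzyme activity, measured with Poly(Glu:Tyr) as the phosphorylation substrate; in other assays of this panel Not Active means under 50% inhibition at 10 µM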
Receptor tyrosine-protein kinase erbB-2, sequence (P04626 whole entry): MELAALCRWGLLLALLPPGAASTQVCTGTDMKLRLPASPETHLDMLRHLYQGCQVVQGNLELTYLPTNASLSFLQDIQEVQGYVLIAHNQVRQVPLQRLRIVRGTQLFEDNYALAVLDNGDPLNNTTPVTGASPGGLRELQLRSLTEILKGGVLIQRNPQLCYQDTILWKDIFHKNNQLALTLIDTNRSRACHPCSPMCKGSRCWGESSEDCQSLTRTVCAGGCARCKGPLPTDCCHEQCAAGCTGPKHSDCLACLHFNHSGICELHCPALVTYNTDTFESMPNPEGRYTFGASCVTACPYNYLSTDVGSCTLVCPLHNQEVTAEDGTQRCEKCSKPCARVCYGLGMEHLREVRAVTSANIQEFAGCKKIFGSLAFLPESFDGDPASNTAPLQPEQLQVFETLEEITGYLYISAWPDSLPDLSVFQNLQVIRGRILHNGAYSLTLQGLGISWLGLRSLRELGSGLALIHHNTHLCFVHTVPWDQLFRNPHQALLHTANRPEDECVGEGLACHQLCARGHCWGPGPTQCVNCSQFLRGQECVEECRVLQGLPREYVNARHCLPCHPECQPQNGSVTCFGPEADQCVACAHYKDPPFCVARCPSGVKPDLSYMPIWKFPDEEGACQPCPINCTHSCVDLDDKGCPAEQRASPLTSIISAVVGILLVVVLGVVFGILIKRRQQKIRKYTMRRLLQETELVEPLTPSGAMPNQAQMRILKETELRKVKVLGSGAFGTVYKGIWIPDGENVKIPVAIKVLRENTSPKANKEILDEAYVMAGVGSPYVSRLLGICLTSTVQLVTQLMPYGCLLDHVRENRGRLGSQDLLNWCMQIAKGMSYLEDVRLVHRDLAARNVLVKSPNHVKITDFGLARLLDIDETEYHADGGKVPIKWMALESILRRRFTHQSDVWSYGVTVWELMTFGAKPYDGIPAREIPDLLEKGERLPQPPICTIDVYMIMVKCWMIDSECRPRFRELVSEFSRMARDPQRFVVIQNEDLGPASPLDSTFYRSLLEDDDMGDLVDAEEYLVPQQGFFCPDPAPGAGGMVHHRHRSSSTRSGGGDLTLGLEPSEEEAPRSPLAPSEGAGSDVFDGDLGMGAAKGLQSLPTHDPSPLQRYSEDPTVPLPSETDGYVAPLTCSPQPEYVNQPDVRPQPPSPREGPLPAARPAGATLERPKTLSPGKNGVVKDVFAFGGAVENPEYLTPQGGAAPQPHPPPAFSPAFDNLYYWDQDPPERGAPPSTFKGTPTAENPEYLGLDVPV

Sigma non-opioid intracellular receptor 1, sequence (Q99720 whole entry): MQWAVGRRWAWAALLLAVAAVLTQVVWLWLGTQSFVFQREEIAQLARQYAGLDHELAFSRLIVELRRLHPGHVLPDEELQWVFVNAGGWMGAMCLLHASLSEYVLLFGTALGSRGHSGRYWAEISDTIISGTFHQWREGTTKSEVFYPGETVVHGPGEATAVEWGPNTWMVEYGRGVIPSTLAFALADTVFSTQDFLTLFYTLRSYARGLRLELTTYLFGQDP
Adenosine receptor A2a, sequence (P29274 whole entry): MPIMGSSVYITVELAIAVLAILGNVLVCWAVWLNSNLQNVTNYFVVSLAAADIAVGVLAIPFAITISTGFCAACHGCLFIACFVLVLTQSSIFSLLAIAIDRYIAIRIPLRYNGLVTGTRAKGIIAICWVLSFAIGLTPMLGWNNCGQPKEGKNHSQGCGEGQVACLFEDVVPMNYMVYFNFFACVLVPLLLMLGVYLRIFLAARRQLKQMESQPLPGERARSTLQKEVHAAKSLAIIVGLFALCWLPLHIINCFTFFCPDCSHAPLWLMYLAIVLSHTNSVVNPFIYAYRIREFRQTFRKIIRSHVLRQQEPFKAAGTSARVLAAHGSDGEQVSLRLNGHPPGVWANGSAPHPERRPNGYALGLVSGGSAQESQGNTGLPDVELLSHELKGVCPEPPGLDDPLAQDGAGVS

SMILES | IC50 (Adenosine receptor A2a; hek293) | IC50 ([1]; jurkat) | IC50 [2] | IC50 [3] | IC50 [4] | IC50 (Carbonic anhydrase 2) | IC50 [5] | IC50 ([1]; read-out: IC50) [nM] | Ki ([1]; read-out: Ki) [nM] | IC50 (Adenosine receptor A2a; read-out: IC50) [nM] | Ki (Adenosine receptor A2a; read-out: Ki) [nM]
CCCN(CCC)C(=O)C(CCC(=O)O)NC(=O)c1ccccc1 (centres undefined) [PROGLUMIDE] | Not Active | Not Active | Not Active | Not Active | Not Active | Not Active | Not Active |  |  |  | 
NC(=O)c1cnccn1 [PYRAZINAMIDE] | Not Active | Not Active | Not Active | Not Active | Not Active | Not Active | Not Active |  |  |  | 
OC(CCN1CCCCC1)(c1ccccc1)C1CCCCC1 (centres undefined) [TRIHEXYPHENIDYL] | Not Active |  | Not Active | Not Active | Not Active | Not Active | Not Active | 108 | 45 |  | 
Cc1cc2cc3c(C)cc(=O)oc3c(C)c2o1 [TRIOXSALEN] |  | Not Active | Not Active | Not Active | Not Active | Not Active | Not Active |  |  | 1310 | 737
CCCC(CCC)C(=O)O [VALPROIC ACID] | Not Active | Not Active | Not Active | Not Active | Not Active | Not Active | Not Active |  |  |  | 
CCC1=C[C@@H]2CN(C1)Cc1c([nH]c3ccccc13)[C@@](C(=O)OC)(c1cc3c(cc1OC)N(C)[C@H]1[C@@](O)(C(=O)OC)[C@H](OC(C)=O)[C@]4(CC)C=CCN5CC[C@]31[C@@H]54)C2 [VINORELBINE] | Not Active | Not Active | Not Active | Not Active | Not Active | Not Active | Not Active |  |  |  | 
